Results: PubChem BioAssay (NCI)
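Cultured in 96-well plates, cells were exposed to test compound for 48 hours across five concentrations. At the TGI there is no net growth.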 Where a SMILES comes first, the peptide text is derived from it. [ ]: non-standard residue; d: D form. The star is where a group is joined. ξ: configuration not given here. Phe(4-NO2) = N[CH](Cc1ccc([N+](=O)[O-])cc1)C(=O)O; ξF = NC(Cc1ccccc1)C(=O)O; Cbz = O=C(OCc1ccccc1)*; Boc = CC(C)(C)OC(=O)*; Aib = CC(C)(N)C(=O)O; OBn = c1ccc(CO*)cc1

Columns and labels:
Test in all cases: NCI tumour cell line growth inhibition, 48 h
MDA-N = tested on: MDA-N
SNB-19 CNS = tested on: SNB-19 CNS
K-562 leukemia = tested on: K-562 leukemia
786-0 renal = tested on: 786-0 renal
CAKI-1 renal = tested on: CAKI-1 renal
NCI-H522 lung = tested on: NCI-H522 lung
OVCAR-5 ovarian = tested on: OVCAR-5 ovarian
MALME-3M melanoma = tested on: MALME-3M melanoma
NCI/ADR-RES ovarian = tested on: NCI/ADR-RES ovarian
UO-31 renal = tested on: UO-31 renal
HCC-2998 colon = tested on: HCC-2998 colon
U251 CNS = tested on: U251 CNS

SMILES | TGI (MDA-N) | TGI (SNB-19 CNS) | TGI (K-562 leukemia) | TGI (786-0 renal) | TGI (CAKI-1 renal) | TGI (NCI-H522 lung) | TGI (OVCAR-5 ovarian) | TGI (MALME-3M melanoma) | TGI (NCI/ADR-RES ovarian) | TGI (UO-31 renal) | TGI (HCC-2998 colon) | TGI (U251 CNS)
CC(=O)NNc1nc(C)c(C(/C=C/c2ccc3c(c2)OCO3)=N/Nc2ccccc2)s1 | > 100 µM | > 100 µM | > 100 µM | > 100 µM | > 100 µM | > 100 µM | > 100 µM | > 100 µM | > 100 µM | > 100 µM | > 100 µM | > 100 µM
COc1ccc(N[C@H](CS(=O)c2ccc(C)cc2)c2ccc(F)cc2)cc1 (some centres undefined) | > 100 µM | > 100 µM | > 100 µM | > 100 µM | > 100 µM | > 100 µM | > 100 µM | > 100 µM | > 100 µM | > 100 µM | > 100 µM | > 100 µM
COc1cc2c3cc1Oc1c(O)c(OC)cc4c1[C@H](Cc1ccc(cc1)Oc1cc(ccc1O)C[C@H]3N(C)CC2)N(C)CC4 | 24.7 µM | 55.1 µM | 17.6 µM | 21.7 µM | 86.3 µM | 27 µM | 58.6 µM | 36.8 µM | 78.4 µM | 44.8 µM | 22.8 µM | 28 µM
CC(C)(CN)CN | > 100 µM | > 100 µM | > 100 µM | > 100 µM | > 100 µM | > 100 µM | > 100 µM | > 100 µM | > 100 µM | > 100 µM | > 100 µM | > 100 µM
OC(C1CCC=NN1C(O)(C(F)(F)F)C(F)(F)F)(C(F)(F)F)C(F)(F)F (centres undefined) | > 10 µM | > 10 µM | > 10 µM | > 10 µM | > 10 µM | > 10 µM | > 10 µM | > 10 µM | > 10 µM |  | > 10 µM | > 10 µM
O=C(NCCN(CCNC(=O)c1cccc(=O)n1O)CCN(CCNC(=O)c1cccc(=O)n1O)CCNC(=O)c1cccc(=O)n1O)c1cccc(=O)n1O | > 100 µM | > 100 µM | > 100 µM | > 100 µM | > 100 µM | > 100 µM | > 100 µM | > 100 µM | > 100 µM | > 100 µM | > 100 µM | > 100 µM
CC(C)(C)OC(=O)n1cc(C2CNC(=O)C23CCC(=O)N3Cc2ccccc2)c2ccccc21 (centres undefined) | 85.5 µM | > 100 µM | > 100 µM | 44.8 µM | > 100 µM | 35 µM | 40.8 µM | 42.8 µM | > 100 µM | 49 µM |  | 37.3 µM
c1ccc(CNc2c3c(nc4ccccc24)CCC3)cc1 | 30.4 µM | 67.7 µM | 26.2 µM | 28.5 µM | 45.3 µM | 39.3 µM | 51.4 µM | 33.4 µM | 44.2 µM | 25 µM | 26.5 µM | 30.4 µM
CC(=O)O/C=C\OC1CCCC1(c1ccccc1)c1ccccc1 (centres undefined) | 5 µM | 26.3 µM | 9.05 µM | 7.75 µM | 14.3 µM | 23.3 µM | 15.3 µM | 4.61 µM | 8.53 µM | 3.61 µM | 24.3 µM | 11.6 µM
c1ccc2c(-c3cnc(-c4c[nH]c5ccccc45)cn3)c[nH]c2c1 | 50.3 µM | > 100 µM | > 100 µM | > 100 µM | > 100 µM | 64.2 µM | > 100 µM | > 100 µM | > 100 µM | > 100 µM | > 100 µM | > 100 µM
COC1C(O)CC(OC2C(C)OC(Oc3cc(O)c4c(O)c5c(cc4c3)C[C@@H]([C@H](OC)C(=O)[C@@H](O)[C@@H](C)O)[C@H](OC3CC(OC4CC(OC6CC(C)(O)C(O)C(C)O6)C(O)C(C)O4)C(O)C(C)O3)C5=O)CC2OC(C)=O)OC1C (some centres undefined) | > 100 µM | > 100 µM | > 100 µM | > 100 µM | > 100 µM | > 100 µM | > 100 µM | > 100 µM | > 100 µM | > 100 µM | > 100 µM | > 100 µM
COc1ccc(N(C(=O)Nc2ccc(Cl)c(Cl)c2)c2ccccc2)cc1 | > 10 µM | > 10 µM | > 10 µM | > 10 µM | > 10 µM | > 10 µM | > 10 µM | > 10 µM | > 10 µM | > 10 µM | > 10 µM | > 10 µM
O=c1[nH]nc(Cc2ccccc2)n1/N=C/c1c[nH]c2ccccc12 | > 100 µM | > 100 µM | > 100 µM | > 100 µM | 81.8 µM | > 100 µM | > 100 µM | > 100 µM | > 100 µM | > 100 µM | > 100 µM | > 100 µM
COc1cccc(N2C(=O)C3c4[nH]c5ccccc5c4C4c5ccccc5CCC4C3C2=O)c1 (centres undefined) | > 10 µM | > 10 µM | > 10 µM | > 8.35 µM | > 10 µM | > 10 µM | > 10 µM | > 9.13 µM | > 10 µM | > 10 µM | > 10 µM | > 8.12 µM
Cc1ccc([N+](=O)[O-])cc1S(=O)(=O)Nc1ccc(C2=NN(c3ccc([N+](=O)[O-])cc3[N+](=O)[O-])C(c3ccccc3)C2)cc1 (centres undefined) | 35.5 µM | 33 µM | > 100 µM | 30.3 µM | > 100 µM | 25.9 µM | 50.1 µM | 41.6 µM | 49.4 µM | 31.3 µM |  | 25.3 µM
COC(=O)CCC(NC(=O)OC(C)(C)C)C(=O)NC(Cc1ccc([N+](=O)[O-])cc1)C(=O)NCC(=O)OCc1ccccc1 (centres undefined) (Boc-Glu(OMe)-[Phe(4-NO2)]-Gly-OBn; configuration not given here) | > 100 µM | > 100 µM | > 100 µM | > 100 µM | > 100 µM | > 100 µM | > 100 µM | > 100 µM | > 100 µM | > 100 µM | > 100 µM | > 100 µM
COc1ccc2nc3cc(Cl)ccc3c(NCCCCCC(=O)NC(COc3cnc4c(ccc5cccnc54)c3)COc3cnc4c(ccc5cccnc54)c3)c2c1 | > 100 µM | > 100 µM | 13.6 µM | 28.1 µM | > 100 µM | > 100 µM | > 100 µM | > 100 µM | > 100 µM | > 100 µM | 27.9 µM | 21.8 µM
CCOC(C[Se]CC(OCC)OCC)OCC | > 100 µM | > 100 µM | > 100 µM | > 100 µM | > 100 µM | > 100 µM | > 100 µM | > 100 µM | > 100 µM | > 100 µM | > 100 µM | 38.4 µM
CC1=NOC2(C1)/C(=N/O)CCC/C2=N\O (centres undefined) | > 100 µM | > 100 µM | > 100 µM | > 100 µM | > 100 µM | > 100 µM | > 100 µM | > 100 µM | > 100 µM | > 100 µM | > 100 µM | > 100 µM
COc1ccc(N2C=Nn3c(nc4sc(C)c(C)c4c3=O)C2)cc1 | > 100 µM | > 100 µM | > 100 µM | > 100 µM | > 100 µM | > 100 µM | > 100 µM | > 100 µM | > 100 µM | > 100 µM | > 100 µM | > 100 µM
CCN(CC)Cc1nc2sc3c(c2c(=O)n1-c1ccccc1)CCCC3 | 58 µM | > 100 µM | > 100 µM | 32.2 µM | 56.9 µM | 44.9 µM | 63.1 µM | 45.5 µM | 62.1 µM | 23.3 µM | 33.6 µM | 31.3 µM
CC(=O)NCCCCNCCCNC(C)=O | > 100 µM | > 100 µM | > 100 µM | > 100 µM | > 100 µM | > 100 µM | > 100 µM | > 100 µM | > 100 µM | > 100 µM | > 100 µM | > 100 µM
Cn1ccnc1Sc1ccc(/C=N/NC(=O)c2ccccc2O)cc1[N+](=O)[O-] | > 100 µM | > 100 µM |  | > 100 µM | > 100 µM | > 100 µM | > 100 µM | > 100 µM | > 100 µM | > 100 µM | > 100 µM | > 100 µM
COC(=O)CCCc1ccc2c(c1)CC1(C2)Cc2cc3c(cc2C1)CCCC3 | 42.3 µM |  | 52.5 µM | > 100 µM |  | 84 µM | > 100 µM | > 100 µM | > 100 µM | > 100 µM | 74.5 µM | > 100 µM
CC(C)(NC(=O)OCc1ccccc1)C(=O)NC(Cc1ccccc1)C(=O)O (centres undefined) (Cbz-[Aib]-[ξF]-OH) | > 100 µM | > 100 µM | > 100 µM | > 100 µM | > 100 µM | > 100 µM | > 100 µM | > 100 µM | > 100 µM | > 100 µM |  | > 100 µM
Cc1cnoc1NC1=CC(=O)C(=O)c2ccccc21 | 3.01 µM | 73.5 µM | 10.9 µM | > 100 µM | > 100 µM | > 100 µM | 55.9 µM | 9.81 µM | 70.9 µM | 74.6 µM |  | 13.9 µM
